This is an account of results in patent US7635493B2, “Herbal composition for Tinea infection” (Piramal Life Sciences Limited, priority 2005, dated 2009).

The test system of data set [1] is TNF-α. Description: TNF-α production by LPS in human peripheral blood mononuclear cells (hPBMC), ELISA. It counts as cell-based. How it is done:
Assay for Screening in Human Peripheral Blood Mononuclear Cells (hPBMCs). TNF-α production by Lipopolysaccharide (LPS) in hPBMC was measured according to the method described by Jansky, L. et al (Physiol. Res. 52, 593-598, (2003)). Blood was collected from healthy donors into vacutainer tubes coated with potassium EDTA (Vacutest Plast) and diluted 1:2 with Dulbecco's Phosphate Buffered Saline (DPBS) (Sigma Aldrich, St. Louis, Mo.). The PBMC were harvested from human blood and suspended in RPMI 1640 culture medium (Gibco BRL, Pasley, UK) containing 10% fetal bovine serum (FBS) (Hyclone, Utah, USA), 100 U/ml penicillin (Sigma Chemical Co. St Louis, Mo.) and 100 μg/ml streptomycin (Sigma Chemical Co. St Louis, Mo.). The cell concentration was adjusted to 1×10^6 cells/ml. The cell suspension (100 μl) was added to the wells of a 96-well culture plate. Following cell plating, 79 μl of the culture medium and 1 μl of eight different concentrations of the test samples (10 to 100 μg/ml) dissolved in dimethylsulfoxide (DMSO, Sigma, Mo., USA) were added to the cells. The final concentration of DMSO was adjusted to 0.5-1%. Rolipram (100 μM) was used as a standard compound. The plates were incubated for 30 min at 37° C. in an atmosphere of 5% CO2. Finally, 20 μl (10 μg/ml) per well of LPS, (Escherchia coli 0127:B8, Sigma Chemical Co., St. Louis, Mo.) was added, to obtain a final concentration of 2 μg/ml. The plates were incubated at 37° C. for 5 h in an atmosphere of 5% CO2. Supernatants were harvested and assayed for % TNF-α inhibition by ELISA as described by the manufacturer (R&D Systems, MN) or by cytotoxicity bioassay in L929 cells.
For orientation: ELISA stands for enzyme-linked immunosorbent assay.

Data set [2] relates to L929 cells. Description: Cytotoxicity in L929 cell lines. It counts as cell-based. The arrangement: Cytotoxicity in L929 cell lines: unit not given here.
In data set [3] the test system is dermatophytes. The settings on record: Lloydia, 39(4), 218-222, (1976); cited from earlier work.
Data set [4] has as its system Trichophyton mentagrophytes. Briefly: In vitro anti-dermatophytic activity, agar dilution MIC. Conditions: T. mentagrophytes, Sabarouds agar, 28° C./48 h. It counts as cell-based. The protocol: (§1) In vitro Assay Procedure.
(§2) Organisms: Trichophyton mentagrophytes & Microsporum gypseum.
(§3) Cultures were grown on PDA agar slants at 28° C. for 7 days. The growth was covered with sterile saline & scraped to get a growth suspension. The resulting mixture of conidia or sporangiospores & hypal fragments was transferred to a sterile test tube. The heavy particles were allowed to settle & upper homogenous suspension was transferred to another tube. These suspensions were adjusted to an optical density that ranged from 0.09 to 0.11 (80 to 82% transmittance) using a spectrophotometer. These stock suspensions were further diluted 1:10 with saline to obtain test inoculum (1×103 to 5×10^3 cfu/ml).
(§4) Ointment & Cream: A 100 mg/ml stock solution of ointment & cream of example 4 and 5 was prepared in demineralised water+0.01% Tween 20. Calculated amount of stock solution was added to 20 ml of Sabarouds melted agar medium & poured into petri plates so as to get a series of serial two fold dilution of the extract in the medium. Five concentrations of 100, 50, 25, 10 & 5 mg/ml were used for both formulations in initial study. A repeated study was carried out using lower concentrations of both the formulations. The concentrations used were 5, 1, 0.9, 0.8, 0.7, 0.6, 0.5, 0.4 0.3, 0.2 & 0.1 mg/ml.
(§5) Extract of Example 1 and Ethyl p-methoxycinnamate: […]

Data set [5] relates to Microsporum gypseum. The data set is described as above. The class given is cell-based. Conditions: Nannizzia gypsea; M. gypseum; Sabarouds agar, 28° C./48 h. How it is done:
as §1, §2, §3, §4, §5

Structures are written as SMILES. Converted amounts (≈) assume the structure as drawn.

As usually defined, the inhibition is the drop in the measured response relative to a control, in per cent. For orientation: MIC means the smallest concentration in the dilution series that meets the test's criterion for growth inhibition. `CCOC(=O)C=Cc1ccc(OC)cc1` [Ethyl p-methoxycinnamate] registered an inhibition at 10 µg/mL in data set [1] (PBMC, sample concentration 10 μg/ml, LPS-stimulated human cells, 5 h) of 0%. The inhibition at 100 µg/mL in data set [1] (PBMC, sample concentration 100 μg/ml, LPS-stimulated human cells, 5 h) amounted to 80%. Also, in data set [1] (conclusion from table 1), the “TNF alpha activity inhibition (conclusion in words)” value was “inhibit TNF alpha activity”. The “Cytotoxicity in L929 cell lines” value in data set [2] (10 μg/ml, 3.5 h) turned out to be 20; in data set [2] (10 μg/ml, 24 h), 27; in data set [2] (100 μg/ml, 3.5 h) it was 12; in data set [2] (100 μg/ml, 24 h) it was 02. The “Cytotoxicity (conclusion in words)” value in data set [2] (as measured in L929 cell lines) is given as “low cytotoxicity”. In addition, in data set [3], the “Anti-dermatophytic activity (reported)” value is “reported to be anti-dermatophytic”. Moreover, the MIC in data set [4] and in data set [5] was 30 µg/mL (≈ 145 µM) throughout.
